Experimental data taken from patent publication US10745384B2, “Indazole derivatives as αv integrin antagonists” (BRISTOL-MYERS SQUIBB COMPANY, priority 2016, dated 2020).

Target: T1, human αVβ6 (Homo sapiens, UniProt P06756+P18564)
T1 construct: purchased R & D systems 3817-AV
Assay: human αVβ6 HTRF binding assay
Settings: recombinant human αVβ6 integrin, FITC-conjugated fibronectin
Outline: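 HTRF binding in 20 mM Tris pH 7.4 with 1 mM MgCl2, 1 mM MnCl2, 0.01% Tween 20 and 0.01% BSA. For αVβ6, biotinylated integrin (1.25 nM) and FITC-fibronectin (5 nM) were incubated 1 h at RT, then streptavidin-terbium (0.625 nM) was added overnight in the dark. An SPA-based fibronectin binding format was an alternative.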

T1 sequence (P06756 31-992 limits assumed): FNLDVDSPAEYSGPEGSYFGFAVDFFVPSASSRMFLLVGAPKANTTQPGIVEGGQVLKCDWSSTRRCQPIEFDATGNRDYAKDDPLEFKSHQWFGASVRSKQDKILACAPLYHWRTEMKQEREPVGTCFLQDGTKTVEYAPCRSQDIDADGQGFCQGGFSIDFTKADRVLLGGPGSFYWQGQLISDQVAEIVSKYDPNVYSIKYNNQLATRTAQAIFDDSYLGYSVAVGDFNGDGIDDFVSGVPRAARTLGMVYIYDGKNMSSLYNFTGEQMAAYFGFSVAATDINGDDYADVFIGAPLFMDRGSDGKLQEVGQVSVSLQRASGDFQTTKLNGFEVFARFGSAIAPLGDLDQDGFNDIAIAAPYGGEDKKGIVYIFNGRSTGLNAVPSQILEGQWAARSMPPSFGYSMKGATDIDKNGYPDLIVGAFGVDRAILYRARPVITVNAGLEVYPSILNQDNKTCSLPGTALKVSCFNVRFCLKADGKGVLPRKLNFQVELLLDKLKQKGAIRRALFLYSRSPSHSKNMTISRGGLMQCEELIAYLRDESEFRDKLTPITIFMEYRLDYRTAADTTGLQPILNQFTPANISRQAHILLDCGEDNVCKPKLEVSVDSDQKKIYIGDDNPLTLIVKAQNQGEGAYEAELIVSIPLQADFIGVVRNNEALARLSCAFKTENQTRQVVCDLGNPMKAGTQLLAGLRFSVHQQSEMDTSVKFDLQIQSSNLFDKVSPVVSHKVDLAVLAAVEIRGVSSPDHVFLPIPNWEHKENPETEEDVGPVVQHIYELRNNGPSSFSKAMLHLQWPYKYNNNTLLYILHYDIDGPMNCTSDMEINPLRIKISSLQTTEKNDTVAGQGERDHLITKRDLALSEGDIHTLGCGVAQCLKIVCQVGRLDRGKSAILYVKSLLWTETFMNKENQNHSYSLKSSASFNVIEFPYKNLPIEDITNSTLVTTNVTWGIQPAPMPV
T1 sequence (P18564 22-707 limits assumed): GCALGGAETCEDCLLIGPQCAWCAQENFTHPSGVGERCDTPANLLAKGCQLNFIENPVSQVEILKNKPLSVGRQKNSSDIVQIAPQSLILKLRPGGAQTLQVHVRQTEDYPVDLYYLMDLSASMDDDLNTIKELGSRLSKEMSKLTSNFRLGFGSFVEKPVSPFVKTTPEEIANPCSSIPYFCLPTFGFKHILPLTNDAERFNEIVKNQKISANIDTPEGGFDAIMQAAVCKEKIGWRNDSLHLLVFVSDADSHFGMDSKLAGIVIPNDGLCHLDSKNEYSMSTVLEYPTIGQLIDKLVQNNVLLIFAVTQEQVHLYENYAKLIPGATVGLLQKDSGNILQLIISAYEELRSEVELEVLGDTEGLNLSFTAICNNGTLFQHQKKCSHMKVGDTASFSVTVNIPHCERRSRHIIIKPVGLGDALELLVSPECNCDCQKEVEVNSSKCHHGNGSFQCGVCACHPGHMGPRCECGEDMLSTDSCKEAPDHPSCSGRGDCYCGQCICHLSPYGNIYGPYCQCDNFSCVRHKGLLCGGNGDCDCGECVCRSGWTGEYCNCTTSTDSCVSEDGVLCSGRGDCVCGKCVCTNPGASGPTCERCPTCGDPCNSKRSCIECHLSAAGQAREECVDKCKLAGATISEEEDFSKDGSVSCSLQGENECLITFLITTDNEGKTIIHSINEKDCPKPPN

IC50	Compound
5.7 nM	Cn1cnc2ncc(C(CC(=O)O)n3ncc4cc(OCCc5ccc6c(n5)NCCC6)ccc43)cc21 (stereo not shown) [Example 140, 3-(1-methyl-1H-imidazo[4,5-b]pyridin-6-yl)-3-(5-(2-(5,6,7,8-tetrahydro-1,8-naphthyridin-2-yl)ethoxy)-1H-indazol-1-yl)propanoic acid]
8.2 nM	O=C(O)CC(c1cncc(-c2ccn[nH]2)c1)n1ncc2cc(OCCc3ccc4c(n3)NCCC4)ccc21 (stereo not shown) [Example 141, 3-(5-(1H-pyrazol-5-yl)pyridin-3-yl)-3-(5-(2-(5,6,7,8-tetrahydro-1,8-naphthyridin-2-yl)ethoxy)-1H-indazol-1-yl)propanoic acid]
36 nM	O=C(O)CC(c1cncc(N2CCOCC2)n1)n1ncc2cc(OCCc3ccc4c(n3)NCCC4)ccc21 (stereo not shown) [Example 142, 3-(6-morpholinopyrazin-2-yl)-3-(5-(2-(5,6,7,8-tetrahydro-1,8-naphthyridin-2-yl)ethoxy)-1H-indazol-1-yl)propanoic acid]
9.8 nM	Cn1cc(-c2cncc(C(CC(=O)O)n3ncc4cc(OCCc5ccc6c(n5)NCCC6)ccc43)c2)cn1 (stereo not shown) [Example 143, 3-(5-(1-methyl-1H-pyrazol-4-yl)pyridin-3-yl)-3-(5-(2-(5,6,7,8-tetrahydro-1,8-naphthyridin-2-yl)ethoxy)-1H-indazol-1-yl)propanoic acid]
5 nM	CC(C)(O)c1cncc(C(CC(=O)O)n2ncc3cc(OCCc4ccc5c(n4)NCCC5)ccc32)c1 (stereo not shown) [Example 144, 3-(5-(2-hydroxypropan-2-yl)pyridin-3-yl)-3-(5-(2-(5,6,7,8-tetrahydro-1,8-naphthyridin-2-yl)ethoxy)-1H-indazol-1-yl)propanoic acid]
1900 nM	CC(C)(O)c1cncc([C@@H](CC(=O)O)n2ncc3cc(OCCc4ccc5c(n4)NCCC5)ccc32)c1 [Example 145, (R)-3-(5-(2-hydroxypropan-2-yl)pyridin-3-yl)-3-(5-(2-(5,6,7,8-tetrahydro-1,8-naphthyridin-2-yl)ethoxy)-1H-indazol-1-yl)propanoic acid]
5.2 nM	CC(C)(O)c1cncc([C@H](CC(=O)O)n2ncc3cc(OCCc4ccc5c(n4)NCCC5)ccc32)c1 [Example 146, (S)-3-(5-(2-hydroxypropan-2-yl)pyridin-3-yl)-3-(5-(2-(5,6,7,8-tetrahydro-1,8-naphthyridin-2-yl)ethoxy)-1H-indazol-1-yl)propanoic acid]
620 nM	COc1ncc([C@@H](CC(=O)O)n2ncc3cc(OCCc4ccc5c(n4)NCCC5)ccc32)cn1 [Example 147, (R)-3-(2-methoxypyrimidin-5-yl)-3-(5-(2-(5,6,7,8-tetrahydro-1,8-naphthyridin-2-yl)ethoxy)-1H-indazol-1-yl)propanoic acid]
18 nM	COc1ncc([C@H](CC(=O)O)n2ncc3cc(OCCc4ccc5c(n4)NCCC5)ccc32)cn1 [Example 148, (S)-3-(2-methoxypyrimidin-5-yl)-3-(5-(2-(5,6,7,8-tetrahydro-1,8-naphthyridin-2-yl)ethoxy)-1H-indazol-1-yl)propanoic acid]
2300 nM	COc1cncc(C(CC(=O)O)n2ncc3cc(OCCc4ccc5c(n4)NCCC5)ccc32)n1 (stereo not shown) [Example 149, 3-(6-methoxypyrazin-2-yl)-3-(5-(2-(5,6,7,8-tetrahydro-1,8-naphthyridin-2-yl)ethoxy)-1H-indazol-1-yl)propanoic acid]
110 nM	O=C(O)C[C@H](c1cncc(N2CCCC2=O)c1)n1ncc2cc(OCCc3ccc4c(n3)NCCC4)ccc21 [Example 150, (R)-3-(5-(2-oxopyrrolidin-1-yl)pyridin-3-yl)-3-(5-(2-(5,6,7,8-tetrahydro-1,8-naphthyridin-2-yl)ethoxy)-1H-indazol-1-yl)propanoic acid]
1 nM	O=C(O)C[C@@H](c1cncc(N2CCCC2=O)c1)n1ncc2cc(OCCc3ccc4c(n3)NCCC4)ccc21 [Example 151, (5)-3-(5-(2-oxopyrrolidin-1-yl)pyridin-3-yl)-3-(5-(2-(5,6,7,8-tetrahydro-1,8-naphthyridin-2-yl)ethoxy)-1H-indazol-1-yl)propanoic acid]
22 nM	O=C(O)CC(c1cncc(C(=O)N2CCOCC2)c1)n1ncc2cc(OCCc3ccc4c(n3)NCCC4)ccc21 (stereo not shown) [Example 152, 3-(5-(morpholine-4-carbonyl)pyridin-3-yl)-3-(5-(2-(5,6,7,8-tetrahydro-1,8-naphthyridin-2-yl)ethoxy)-1H-indazol-1-yl)propanoic acid]
17 nM	CN(C)C(=O)c1cncc(C(CC(=O)O)n2ncc3cc(OCCc4ccc5c(n4)NCCC5)ccc32)c1 (stereo not shown) [Example 153, 3-(5-(dimethylcarbamoyl)pyridin-3-yl)-3-(5-(2-(5,6,7,8-tetrahydro-1,8-naphthyridin-2-yl)ethoxy)-1H-indazol-1-yl)propanoic acid]
29 nM	CN1CCN(C(=O)c2cncc(C(CC(=O)O)n3ncc4cc(OCCc5ccc6c(n5)NCCC6)ccc43)c2)CC1 (stereo not shown) [Example 154, 3-(5-(4-methylpiperazine-1-carbonyl)pyridin-3-yl)-3-(5-(2-(5,6,7,8-tetrahydro-1,8-naphthyridin-2-yl)ethoxy)-1H-indazol-1-yl)propanoic acid]
5.3 nM	O=C(O)CC(c1cncc(C2CC2)c1)n1ncc2cc(OCCc3ccc4c(n3)NCCC4)ccc21 (stereo not shown) [Example 155, 3-(5-cyclopropylpyridin-3-yl)-3-(5-(2-(5,6,7,8-tetrahydro-1,8-naphthyridin-2-yl)ethoxy)-1H-indazol-1-yl)propanoic acid]

IC50	Compound
8.8 nM	CN1CCN(c2cncc(C(CC(=O)O)n3ncc4cc(OCCc5ccc6c(n5)NCCC6)ccc43)c2)CC1 (stereo not shown) [Example 156, 3-(5-(4-methylpiperazin-1-yl)pyridin-3-yl)-3-(5-(2-(5,6,7,8-tetrahydro-1,8-naphthyridin-2-yl)ethoxy)-1H-indazol-1-yl)propanoic acid]
32 nM	O=C(O)CC(c1cncc(C(=O)N2CCC2)c1)n1ncc2cc(OCCc3ccc4c(n3)NCCC4)ccc21 (stereo not shown) [Example 157, 3-(5-(azetidine-1-carbonyl)pyridin-3-yl)-3-(5-(2-(5,6,7,8-tetrahydro-1,8-naphthyridin-2-yl)ethoxy)-1H-indazol-1-yl)propanoic acid]
13 nM	CN(C)CCNC(=O)c1cncc(C(CC(=O)O)n2ncc3cc(OCCc4ccc5c(n4)NCCC5)ccc32)c1 (stereo not shown) [Example 158, 3-(5-((2-(dimethylamino)ethyl)carbamoyl)pyridin-3-yl)-3-(5-(2-(5,6,7,8-tetrahydro-1,8-naphthyridin-2-yl)ethoxy)-1H-indazol-1-yl)propanoic acid]
47 nM	Cc1ncc([C@H](CC(=O)O)n2ncc3cc(OCCc4ccc5c(n4)NCCC5)ccc32)cn1 [Example 159, (S)-3-(2-methylpyrimidin-5-yl)-3-(5-(2-(5,6,7,8-tetrahydro-1,8-naphthyridin-2-yl)ethoxy)-1H-indazol-1-yl)propanoic acid]
2600 nM	Cc1ncc([C@@H](CC(=O)O)n2ncc3cc(OCCc4ccc5c(n4)NCCC5)ccc32)cn1 [Example 160, (R)-3-(2-methylpyrimidin-5-yl)-3-(5-(2-(5,6,7,8-tetrahydro-1,8-naphthyridin-2-yl)ethoxy)-1H-indazol-1-yl)propanoic acid]
5.5 nM	O=C(O)CC(c1cncc(-n2cccn2)c1)n1ncc2cc(OCCc3ccc4c(n3)NCCC4)ccc21 (stereo not shown) [Example 161, 3-(5-(1H-pyrazol-1-yl)pyridin-3-yl)-3-(5-(2-(5,6,7,8-tetrahydro-1,8-naphthyridin-2-yl)ethoxy)-1H-indazol-1-yl)propanoic acid]
730 nM	CCCC(CC(=O)O)n1ncc2cc(OCCc3ccc4c(n3)NCCC4)ccc21 (stereo not shown) [Example 162, 3-(5-(2-(5,6,7,8-tetrahydro-1,8-naphthyridin-2-yl)ethoxy)-1H-indazol-1-yl)hexanoic acid]
3.8 nM	CN(C)c1cncc(C(CC(=O)O)n2ncc3cc(OCCc4ccc5c(n4)NCCC5)ccc32)c1 (stereo not shown) [Example 163, 3-(5-(dimethylamino)pyridin-3-yl)-3-(5-(2-(5,6,7,8-tetrahydro-1,8-naphthyridin-2-yl)ethoxy)-1H-indazol-1-yl)propanoic acid]
3200 nM	O=C(O)CC(C1CCCCC1)n1ncc2cc(OCCc3ccc4c(n3)NCCC4)ccc21 (stereo not shown) [Example 164, 3-cyclohexyl-3-(5-(2-(5,6,7,8-tetrahydro-1,8-naphthyridin-2-yl)ethoxy)-1H-indazol-1-yl)propanoic acid]
540 nM	CS(=O)(=O)c1cncc([C@@H](CC(=O)O)n2ncc3cc(OCCc4ccc5c(n4)NCCC5)ccc32)c1 [Example 165, (R)-3-(5-(methylsulfonyl)pyridin-3-yl)-3-(5-(2-(5,6,7,8-tetrahydro-1,8-naphthyridin-2-yl)ethoxy)-1H-indazol-1-yl)propanoic acid]
5.2 nM	CS(=O)(=O)c1cncc([C@H](CC(=O)O)n2ncc3cc(OCCc4ccc5c(n4)NCCC5)ccc32)c1 [Example 166, (S)-3-(5-(methylsulfonyl)pyridin-3-yl)-3-(5-(2-(5,6,7,8-tetrahydro-1,8-naphthyridin-2-yl)ethoxy)-1H-indazol-1-yl)propanoic acid]
15 nM	COC(=O)NCc1cncc(C(CC(=O)O)n2ncc3cc(OCCc4ccc5c(n4)NCCC5)ccc32)c1 (stereo not shown) [Example 167, 3-(5-(((Methoxycarbonyl)amino)methyl)pyridin-3-yl)-3-(5-(2-(5,6,7,8-tetrahydro-1,8-naphthyridin-2-yl)ethoxy)-1H-indazol-1-yl)propanoic acid]
740 nM	COC(=O)NCc1cncc([C@@H](CC(=O)O)n2ncc3cc(OCCc4ccc5c(n4)NCCC5)ccc32)c1 [Example 168]
18 nM	CS(=O)(=O)NCc1cncc(C(CC(=O)O)n2ncc3cc(OCCc4ccc5c(n4)NCCC5)ccc32)c1 (stereo not shown) [Example 170]
46 nM	CC(=O)NCc1cncc(C(CC(=O)O)n2ncc3cc(OCCc4ccc5c(n4)NCCC5)ccc32)c1 (stereo not shown) [Example 171]
